Test results as given in patent publication US12606552B2, “Bifunctional compound, preparation method therefor, and use thereof” (SUZHOU KINTOR PHARMACEUTICALS, INC., priority 2020, dated 2026).

How the values were obtained:
[1] = tested on: flank sebaceous glands of golden hamster; test: In vivo efficacy on acne in female golden hamsters (growth of sebaceous plaques induced by testosterone propionate); settings: for The inhibition rate of the growth of sebaceous plaques (%): 400 μg (1.6%) + testosterone propionate 12 μg, skin smear once a day, 21 days
Description: Activity Assay Example 7: In Vivo Efficacy of Compounds on Acne in Female Golden Hamsters
1. Test object: The flank sebaceous glands of golden hamster are androgen-dependent organs, and testosterone propionate (male hormone) promotes the enlargement of sebaceous glands. This experiment is mainly to study the inhibitory effect of CB-03-01 (positive drug), Flutamide (positive drug) and the compound on sebaceous gland enlargement in female golden hamster acne model (androgen dependence), to further observe the in vivo drug efficacy of the compound, to provide the basis for clinical trials of androgen-induced acne symptoms.
Androgen (Testosterone Propionate-TP); CB-03-01 (Clascoterone, CAS No. 19608-29-8); □ Flutamide (Flutamide, CAS No. 13311-84-7); compound A46 of the present invention.
2.2 Experimental Animals, See Table 4 for Details
2.3 Administration Vehicle: Acetone. 3. Experimental Design
In this experiment, from 72 female golden hamsters, according to the size and body weight of sebaceous glands, golden hamsters were evenly distributed to each group, 6 mice per group, a total of 7 groups, and they were administered continuously for 21 days.
According to the protocol in the table, […] of drug was administered each time, it was evenly smeared on the sebaceous glands, and administered once a day.
Animal grouping and status observation: Before grouping, the body weight was weighed, and the sebaceous glands on both sides were shaved for the observation of the size of sebaceous glands. Animals were observed twice a day in the morning and afternoon during the administration period. On the 21st day after administration, the size of sebaceous glands and the body weight of animals were observed and recorded.
The size of the sebaceous glands is expressed by the area, and the vernier caliper recorded its long side (a) and short side (b), and the area of the sebaceous glands (S) is obtained from the formula for calculating the area of a rectangle. In model group and administration group, ΔS=S−S(vehicle). Growth inhibition rate (%)=(ΔS(acetone testosterone group)−ΔS (administration group))/ΔS(acetone testosterone group)*100%.

AR = target: T1, AR (Homo sapiens, UniProt P10275, T878A); test: Effects of compounds on AR expression in LNCaP cells (ELISA, DC50); type: cell-based; design: Measurement of the Effects of Drugs on the Expression of AR in Cells by ELISA Method; endogenous in cells; host or cells: LNCaP; settings: 24 hours of drug treatment, AR by ELISA
T1 sequence (P10275 1-920 T878A): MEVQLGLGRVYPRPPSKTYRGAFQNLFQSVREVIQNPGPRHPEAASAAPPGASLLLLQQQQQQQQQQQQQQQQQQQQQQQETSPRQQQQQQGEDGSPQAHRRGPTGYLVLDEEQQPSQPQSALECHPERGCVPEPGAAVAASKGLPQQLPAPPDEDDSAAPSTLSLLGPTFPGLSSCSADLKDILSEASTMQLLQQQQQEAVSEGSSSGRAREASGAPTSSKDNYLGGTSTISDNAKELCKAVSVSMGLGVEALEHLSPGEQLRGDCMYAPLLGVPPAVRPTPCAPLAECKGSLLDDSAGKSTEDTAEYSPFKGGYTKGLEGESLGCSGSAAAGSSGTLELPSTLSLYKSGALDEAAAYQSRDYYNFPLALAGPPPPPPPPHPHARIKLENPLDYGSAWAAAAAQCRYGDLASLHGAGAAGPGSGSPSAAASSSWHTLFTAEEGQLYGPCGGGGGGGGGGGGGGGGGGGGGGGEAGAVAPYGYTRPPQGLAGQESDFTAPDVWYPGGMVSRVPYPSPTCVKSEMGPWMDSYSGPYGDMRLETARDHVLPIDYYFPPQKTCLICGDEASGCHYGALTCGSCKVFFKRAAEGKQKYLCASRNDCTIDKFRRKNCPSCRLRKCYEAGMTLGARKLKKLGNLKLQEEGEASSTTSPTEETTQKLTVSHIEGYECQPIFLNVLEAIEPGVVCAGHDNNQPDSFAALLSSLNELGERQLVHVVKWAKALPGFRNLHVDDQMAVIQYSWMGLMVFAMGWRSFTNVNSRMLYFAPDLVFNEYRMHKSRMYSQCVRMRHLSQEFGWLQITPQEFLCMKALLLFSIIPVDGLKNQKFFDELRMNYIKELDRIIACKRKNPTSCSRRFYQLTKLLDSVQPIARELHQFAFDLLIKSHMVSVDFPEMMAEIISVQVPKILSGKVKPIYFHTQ
In short: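 LNCaP cells at about 15,000/well were treated for 24 h with compound at 0.0001–2 μmol/L final. AR in cell lysates was measured by ELISA (OD450). Inhibition was relative to DMSO control after blank subtraction, and DC50 was calculated from it.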

[2] = tested on: LNCaP (human prostate cancer); test: Hormone-dependent prostate cancer long-term efficacy test (LNCaP xenograft, tumor growth inhibition); type: in vivo, SCID nude mice
Procedure: Activity Assay Example 5: Hormone-Dependent Prostate Cancer Long-Term Efficacy Test
1. Tumor Model Establishment
1.5*10^7 LNCaP (human prostate cancer) was purchased from the Chinese Academy of Sciences Cell Bank and cultured in RPMI-1640 medium containing 10% fetal bovine serum. The cells were grown to 80-90% confluence and passaged in about 4-5 days, and the cells were grown to a sufficient amount and then inoculated into nude mice.
18-20 g SCID nude mice aged 6-7 weeks old were purchased from Beijing Vital River Co., Ltd. Mice were kept in SPF animal room, in which the temperature was 20-25° C., and the humidity was 40%-70%, and light/dark was 12 hours a day respectively. Animals were kept in separate cages, 5 per cage, with free access to food and water, in which the feed was sterilized by irradiation, and the water was autoclaved. The mice were grouped for experiment when raised to 10˜11 weeks old. LNCaP tumor cells were directly inoculated into the right back of nude mice.
3. Grouping and Administration Schedule Design
When the average tumor volume reached 200-300 mm^3, the tumors with good shape were selected for random number grouping according to the tumor volume, and the selected animals were marked and divided into 5 groups, 5 per group. Administration vehicle: 5% EtOH, 5% solutolHS15 in PBS. The corresponding dose of compound was administered by gavage.
(§1) Data are presented as mean±standard deviation (Mean±SD). One-way multi-level analysis of variance was used for statistics, and the comparison between each drug group and the model group was performed by Stundent's t-test or rank sum test, and the p value was calculated. p<0.05 means there is a significant difference between the two groups.

[3] = tested on: androgenetic alopecia model in C57BL/6J mice; test: Hair regeneration effects on androgenic alopecia C57 mouse model (DHT-induced); type: in vivo, C57BL/6N mice; settings: DHT 30 mpk subcutaneous alone (model), AVER n = 6, score 0-5
Description: Activity Assay Example 8: Hair Regeneration Effects of Compounds on Androgenic Alopecia C57 Mouse Model
The purpose of this study was to compare the effect of the compounds prepared by the present invention as AR protein degraders on hair regrowth in an androgenetic alopecia model in C57BL/6J mice by transdermal application route of administration, and to provide data to support subsequent clinical trials.
2. Experimental Principle
Name of test compound I: dihydrotestosterone DHT; name of test compound II: compound A46 of the present invention; name of test compound III: minoxidil.
4. Experimental animals: strain: C57BL/6N mice; age: 6-7 weeks; gender: male; number of animals: 70 (10 for later use); rearing environment: specific pathogen-free (SPF).
70 mice were deeply anesthetized, and the hair on the back of the mice was removed with an animal shaver, then the depilatory cream (Veet https://item.jd.com/6291245.html) was smeared evenly on the surface of the mice skin, and left 7-10 minutes. Then the hair was gently scraped off with a hair removal scraper against the direction of the hair, and finally the residual hair removal cream on the skin surface was fully washed with water to avoid burning the mice skin.
This experiment was divided into 6 groups, and the DHT administration started on the day of hair removal, A46 is administered on day 2 after hair removal and is counted as day 1 (the day of hair removal is counted as day 0).
5.3 Test Compound Preparation Method
5.4 Observation and Measurement Indicators • 1) Body weight/g: From the first day of administration, body weight was weighed and recorded twice a week. • 2) Hair regeneration (anagen) score (0 points: no darkening of skin color in all areas; 1 point: darkening of gray skin color areas; 2 points: visible short hair; 3 points: thin hair; 4 points: thick hair; 5 points: full hair growth).
All mice were photographed on day 1 after hair removal, and then photographed and scored daily from day 4 until the end of the experiment. • 3) At the end of the experiment, skin and blood collection operations were performed as needed. 5.5 Criteria for Drug Withdrawal and Experiment Termination
as §1, with “average±standard error (AVE±SEM).” for “mean±standard deviation (Mean±SD).”, “statistics. The” for “statistics, and the”, “two groups, p<0.01 means there is a extremely significant difference between the two” for “two”

CC(C)C(=O)Nc1ccc([N+](=O)[O-])c(C(F)(F)F)c1 [Flutamide, reference compound]
The inhibition rate of the growth of sebaceous plaques (%) [1]: 40.74%

Cc1ncsc1-c1ccc(CNC(=O)[C@@H]2C[C@@H](O)CN2C(=O)[C@@H](NC(=O)COCCCCOc2ccc(-c3ncc(N4C(=S)N(c5ccc(C#N)c(C(F)(F)F)c5F)C(=O)C4(C)C)cc3F)c(C(F)(F)F)c2)C(C)(C)C)cc1 [Compound A88]
DC50 (AR): 55 nM
Tumor growth inhibition rate ([2]; 10 mpk by gavage, 3 days): 19.81%
Tumor growth inhibition rate ([2]; 10 mpk by gavage, 7 days): 38.44%
Tumor growth inhibition rate ([2]; 10 mpk by gavage, 10 days): 31.33%
Tumor growth inhibition rate ([2]; 10 mpk by gavage, 14 days): 13.15%
Tumor growth inhibition rate ([2]; 25 mpk by gavage, 3 days): 14.98%
Tumor growth inhibition rate ([2]; 25 mpk by gavage, 7 days): 36.36%
Tumor growth inhibition rate ([2]; 25 mpk by gavage, 10 days): 37.51%
Tumor growth inhibition rate ([2]; 25 mpk by gavage, 14 days): 24.68%
Tumor growth inhibition rate ([2]; 50 mpk by gavage, 3 days): 22.30%
Tumor growth inhibition rate ([2]; 50 mpk by gavage, 7 days): 51.85%
Tumor growth inhibition rate ([2]; 50 mpk by gavage, 10 days): 42.62%
Tumor growth inhibition rate ([2]; 50 mpk by gavage, 14 days): 24.47%

CCC(=O)O[C@]1(C(=O)CO)CC[C@H]2[C@@H]3CCC4=CC(=O)CC[C@]4(C)[C@H]3CC[C@@]21C [CB-03-01, Clascoterone, reference compound]
The inhibition rate of the growth of sebaceous plaques (%) [1]: 69.53%

C[C@]12CCC(=O)C[C@@H]1CC[C@@H]1[C@@H]2CC[C@]2(C)[C@@H](O)CC[C@@H]12 [DHT, dihydrotestosterone, reference compound]
Hair regeneration score ([3]; 0 day): 0.00
Hair regeneration score ([3]; 3 days): 0.00
Hair regeneration score ([3]; 5 days): 0.00
Hair regeneration score ([3]; 7 days): 0.00
Hair regeneration score ([3]; 10 days): 0.00
Hair regeneration score ([3]; 12 days): 0.00
Hair regeneration score ([3]; 14 days): 0.17
Hair regeneration score ([3]; 17 days): 0.5

CCC(=O)O[C@H]1CC[C@H]2[C@@H]3CCC4=CC(=O)CC[C@]4(C)[C@H]3CC[C@]12C [testosterone propionate, reference compound]
area of sebaceous plaques ([1]; model group, 12 μg TP skin smear, after 21 days): 40-50 mm^2
